“And” between values parts separate entries of the source, which are not always exact repeats. Equal values may be shown once.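 Method: 48-hour compound exposure of cells in 96-well plates, five concentrations, linear interpolation of endpoints. At the GI50, growth is halved. Definition used: TGI = concentration required for complete inhibition of growth.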
What was measured:
Experiment in all cases: NCI anticancer screen, dose series, 48 h
HCT-15 colon = tested on: HCT-15 colon
IGROV1 ovarian = tested on: IGROV1 ovarian
M14 melanoma = tested on: M14 melanoma
MDA-MB-435 = tested on: MDA-MB-435
OVCAR-3 ovarian = tested on: OVCAR-3 ovarian
PC-3 prostate = tested on: PC-3 prostate
SF-268 CNS = tested on: SF-268 CNS
SN12C renal = tested on: SN12C renal

Compound | GI50 (HCT-15 colon) | TGI (HCT-15 colon) | GI50 (IGROV1 ovarian) | TGI (IGROV1 ovarian) | GI50 (M14 melanoma) | TGI (M14 melanoma) | GI50 (MDA-MB-435) | TGI (MDA-MB-435) | GI50 (OVCAR-3 ovarian) | TGI (OVCAR-3 ovarian) | GI50 (PC-3 prostate) | TGI (PC-3 prostate) | GI50 (SF-268 CNS) | TGI (SF-268 CNS) | GI50 (SN12C renal) | TGI (SN12C renal)
CC(=O)Oc1cc2c(OC(C)=O)c(-c3c(C)cc4c(C(C)C)c(OC(C)=O)c(OC(C)=O)cc4c3OC(C)=O)c(C)cc2c(C(C)C)c1OC(C)=O | 4940 nM and 5210 nM and 7970 nM | 9.98 µM and 10.5 µM and 18.2 µM | 16200 nM and 3270 nM and 25800 nM | 33.9 µM and 9.86 µM and 57.5 µM | 6750 nM and 5890 nM and 8150 nM | 18.5 µM and 12.5 µM and 19.3 µM | 8130 nM and 6800 nM and 10100 nM | 26.8 µM and 14.1 µM and 22.7 µM | 4600 nM and 6150 nM and 8520 nM | 13.1 µM and 11.5 µM and 21 µM | 5480 nM and 5870 nM and 9870 nM | 10.9 µM and 12.1 µM and 23.2 µM | 6910 nM and 7210 nM and 11700 nM | 39.7 µM and 29 µM and 37.4 µM | 1210 nM and 1220 nM and 6110 nM | 2.44 µM and 8.04 µM and 12.8 µM
O=C(NCc1ccncc1)C12CC3CC(C1)CC(c1ccc(Cl)cc1)(C3)C2 | 12100 nM | 25.2 µM | 13300 nM | 29.3 µM | 12700 nM | 26.9 µM | 12700 nM | 25.3 µM | 13200 nM | 27.3 µM | 8860 nM | 23.1 µM | 13700 nM | 29.5 µM | 13400 nM | 27.3 µM
CN(C)CCCNC(=O)c1cncnc1Nc1ccc(OCc2cccc(F)c2)c(Cl)c1 | 1380 nM | 2.75 µM | 1780 nM | 3.33 µM | 1710 nM | 3.38 µM | 1800 nM | 3.33 µM | 1490 nM | 2.88 µM | 1580 nM | 3.11 µM | 1810 nM | 3.34 µM | 1670 nM | 3.14 µM
COc1cnc2c(c1)C(=O)c1c-2n(CCCNC(C)C)c(=O)c2cc(F)ccc12 | 163 nM | 1.32 µM | 206 nM | 1.92 µM | 230 nM | 1.3 µM | 309 nM | 1.48 µM | 190 nM | 1.03 µM | 281 nM | 2.55 µM | 207 nM | 1.68 µM | 164 nM | 0.831 µM
COc1cc(-c2nn(-c3cccc(NC(=O)c4ccc(N5CCOCC5)c(C(F)(F)F)c4)c3)cc2-c2ccncc2)ccc1Cl | 226 nM | > 100 µM | 405 nM | 9.81 µM | 346 nM | 13.8 µM | 25.2 nM | 0.0827 µM | 147 nM | 1.19 µM | 166 nM | 5.22 µM | 559 nM | > 48.1 µM | 709 nM | > 75.8 µM
N#CC1=C(N)NC(=S)NC12Nc1ccccc1N2 | – | – | 26900 nM | > 100 µM | 40000 nM | > 100 µM | 19600 nM | > 100 µM | 22000 nM | > 100 µM | 28500 nM | > 100 µM | 18600 nM | > 100 µM | 55500 nM | > 100 µM
COC(=O)/C=C/c1cn(C(C)=O)c2ccc(Br)cc12 | 23400 nM | > 100 µM | 19100 nM | > 100 µM | 28500 nM | > 100 µM | 29000 nM | > 100 µM | 23900 nM | > 100 µM | 28000 nM | > 100 µM | 26400 nM | > 100 µM | 31600 nM | > 100 µM
COc1ccc(-c2c(-c3cc(OC)c(OC)c(OC)c3)noc2N)cc1 | < 11.5 nM | > 100 µM | 20.2 nM | 40.1 µM | < 10 nM | > 100 µM | < 10 nM | – | < 10 nM | 0.0208 µM | < 11.9 nM | > 100 µM | < 18.1 nM | 16.3 µM | 37.4 nM | > 69.8 µM
C=CN(C)S(C)(=O)=O | > 100000 nM | > 100 µM | > 100000 nM | > 100 µM | > 100000 nM | > 100 µM | > 100000 nM | > 100 µM | > 100000 nM | > 100 µM | > 100000 nM | > 100 µM | > 100000 nM | > 100 µM | > 100000 nM | > 100 µM
CC1=C([Te]c2ccc(O)cc2)C(=O)c2ccccc2C1=O | 1010 nM | 4.31 µM | 1080 nM | 4.91 µM | 1880 nM | 5.05 µM | 2350 nM | 5.79 µM | 1440 nM | 2.79 µM | 1530 nM | 5.11 µM | 2630 nM | 9.03 µM | 2290 nM | 9.33 µM
CCc1cc2c(cc1N1CCC(N3CCOCC3)CC1)C(C)(C)c1[nH]c3cc(C#N)ccc3c1C2=O | 2020 nM and 1350 nM and 1140 nM | > 33.4 µM and 10.6 µM and 3.75 µM | 2480 nM and 1450 nM and 772 nM | 16.7 µM and 5.16 µM and 4 µM | 1620 nM and 2050 nM and 2170 nM | 8.88 µM and 11.9 µM and > 10 µM | 1460 nM and 1340 nM and 2100 nM | 5.97 µM and 5.53 µM and > 10 µM | 1680 nM and 1650 nM | 4 µM and 3.42 µM and 3.91 µM | 921 nM and 653 nM and 738 nM | > 36.1 µM and 14.6 µM and > 10 µM | 1570 nM and 1540 nM and 1920 nM | 4.02 µM and 3.97 µM and 5.47 µM | 2230 nM and 1440 nM and 1550 nM | 8.69 µM and 6.23 µM and 4.5 µM
CCc1ccc2c(c1)N(CCO)C1=C(C(=O)OC1)C2c1cccc(Cl)c1 (configuration not stated) | 605 nM | 17.9 µM | 3750 nM | 37.6 µM | 584 nM | 12.2 µM | 195 nM | 0.787 µM | 364 nM | 1.68 µM | 687 nM | 23.4 µM | 975 nM | 17.2 µM | 2030 nM | 19 µM
O=C(NO)c1ccc(Cn2c(=O)n(-c3ccccc3F)c(=O)c3ccccc32)cc1 | 1920 nM | 4.42 µM | – | – | 1530 nM | 3.05 µM | 1550 nM | 3.26 µM | 2150 nM | 6.41 µM | 1700 nM | 4.31 µM | 1740 nM | 4.01 µM | – | –
COc1cc(OC)c(NC(=O)c2cc3ccccc3cc2O)cc1Cl | 3380 nM | 19.4 µM | 2030 nM | 11.2 µM | 3030 nM | 13.1 µM | 2840 nM | 9.69 µM | 2020 nM | 4.74 µM | 2130 nM | 8.02 µM | 3660 nM | 33.4 µM | 2260 nM | 7.67 µM
